Results on 4 compounds are retold here after ChEMBL document CHEMBL1144958 (Bioorg Med Chem Lett, 2003).

Broadly, the pKi is the Ki on a negative log10 scale, so that one unit is a factor of ten. A low value points to a high Ki.

The subject of one test is HEK293. Description: Binding affinity towards nicotinic acetylcholine receptor alpha7 - 5-hydroxytryptamine 3 receptor was determined in transfected HEK cells (alpha7) using [125I]-alpha-BgTx as radioligand. In kind it is cell-based.
The target in test [1] is Neuronal acetylcholine receptor; alpha4/beta2 (Rattus norvegicus, UniProt P09483+P12390). The experiment in a line: Binding affinity towards alpha4-beta2 nicotinic receptor was determined in rat brain membrane using [3H]cytisine as radioligand. In kind it is cell membranes.

pKi: −log10 of the molar value.

Chain of Neuronal acetylcholine receptor; alpha4/beta2 (P09483 whole entry): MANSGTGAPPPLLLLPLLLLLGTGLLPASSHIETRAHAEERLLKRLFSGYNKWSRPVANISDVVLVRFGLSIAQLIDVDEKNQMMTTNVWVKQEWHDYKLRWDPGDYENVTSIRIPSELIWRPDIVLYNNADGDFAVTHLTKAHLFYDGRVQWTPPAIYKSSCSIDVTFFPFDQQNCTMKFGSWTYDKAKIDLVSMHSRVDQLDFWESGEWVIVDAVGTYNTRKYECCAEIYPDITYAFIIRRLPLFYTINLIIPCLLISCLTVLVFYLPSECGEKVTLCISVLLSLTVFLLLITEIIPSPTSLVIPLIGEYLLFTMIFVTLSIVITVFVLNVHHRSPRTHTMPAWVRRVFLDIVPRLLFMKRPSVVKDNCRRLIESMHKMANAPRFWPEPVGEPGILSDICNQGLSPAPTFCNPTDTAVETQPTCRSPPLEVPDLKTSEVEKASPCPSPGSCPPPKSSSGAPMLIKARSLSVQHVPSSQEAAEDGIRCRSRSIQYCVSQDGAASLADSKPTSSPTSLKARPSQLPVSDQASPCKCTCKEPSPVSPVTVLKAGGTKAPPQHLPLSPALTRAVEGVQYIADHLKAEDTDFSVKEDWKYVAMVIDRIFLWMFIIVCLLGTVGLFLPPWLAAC
Chain of Neuronal acetylcholine receptor; alpha4/beta2 (P12390 whole entry): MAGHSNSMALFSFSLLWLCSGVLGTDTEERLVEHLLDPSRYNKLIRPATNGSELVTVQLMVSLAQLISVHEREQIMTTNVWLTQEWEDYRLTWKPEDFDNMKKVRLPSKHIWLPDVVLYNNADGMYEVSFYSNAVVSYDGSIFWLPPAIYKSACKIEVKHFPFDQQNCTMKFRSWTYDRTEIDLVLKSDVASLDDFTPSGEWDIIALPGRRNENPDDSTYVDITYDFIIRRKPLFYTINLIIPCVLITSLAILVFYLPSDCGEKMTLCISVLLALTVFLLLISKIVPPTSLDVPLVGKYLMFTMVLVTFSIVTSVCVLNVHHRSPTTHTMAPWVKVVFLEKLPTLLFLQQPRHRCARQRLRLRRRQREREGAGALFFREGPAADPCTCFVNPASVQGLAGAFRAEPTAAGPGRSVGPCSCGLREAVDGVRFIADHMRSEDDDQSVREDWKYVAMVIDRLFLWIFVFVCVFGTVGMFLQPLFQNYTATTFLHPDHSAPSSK

The compound `COC(=O)Nc1ccc(C2CC3CCC2N3)cn1` (configuration not stated) came in with a binding affinity in the test on HEK293 of more than 1000 µM. In test [1], this compound showed a pKi of 5.09.

Turning to `O=C(CCl)Nc1ccc(C2CC3CCC2N3)cn1` (configuration not stated), in the test on HEK293, the binding affinity was 23 µM. In test [1], this compound gave a pKi of 7.79.

`Clc1ncc(C2CC3CCC2N3)cn1` (configuration not stated): the binding affinity with HEK293 came to 0.76 µM. This compound gave a pKi in test [1] of 9.51.

In the test on HEK293, `Clc1ccc(C2CC3CCC2N3)cn1` (configuration not stated) showed a binding affinity of 0.075 µM.
